Results: patent US20260193293A1, “PEPTIDES CAPABLE OF INHIBITING PROTEIN-PROTEIN INTERACTIONS AT GABAB1A SUBUNIT AND USES THEREOF” (UNIVERSITY OF COPENHAGEN, priority 2022, published 2026)
Read-outs that look alike come from different tables or passages of the source. Non-standard residues stand in square brackets, D forms with d. Residues, ends and D or L forms follow the SMILES beside them. NMeT = CN[C@H](C(=O)O)[C@@H](C)O; NMeS = CN[C@@H](CO)C(=O)O

Target: Sushi domains (SD1/2) protein
Experiment: Fluorescence polarization (FP) competition assay with AJAP-1probe, calculated Ki
Assay type: binding
In short: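 Competition against 25 nM TAMRA-labelled peptide probe binding SD1/2, in PBS pH 7.4 with 1% BSA at rt, read at 530/580 nm. IC50 from sigmoidal dose-response fits, at least triplicate; Ki calculated from IC50 using probe Kd from saturation binding.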

[1] = Table 9, Ala-, D-amino acids and N-methylation scans of PIANPWT, read-out: Ki (nM) mean ± SEM
[2] = Table 8, Ala-, D-amino acids and N-methylation scans of AJAP-1WT, read-out: Ki (nM) mean ± SEM
[3] = CPP tagged peptides overview, SD1/2 binding affinity, mean ± SEM, n ≥ 3, read-out: Ki
[4] = Table 14, CPPs tagged peptides, read-out: Ki (nM) mean ± SEM
[5] = Table 4, truncation and elongation scans of APP epitope, read-out: Ki (nM) mean ± SEM
[6] = Table 11, deep mutational scanning validation variants of AJAP-1WT, read-out: Ki (nM) mean ± SEM

Q: Which Ki [1] does the source give for `CC[C@H](C)[C@H](NC(=O)[C@H](C)NC(=O)[C@H](Cc1c[nH]c2ccccc12)NC(=O)[C@@H]1CCCN1C(C)=O)C(=O)N[C@H](C(=O)N[C@@H](Cc1c[nH]c2ccccc12)C(=O)NCC(=O)N1CCC[C@H]1C(=O)N[C@H](C(=O)N[C@H](C(=O)N(C)[C@@H](CO)C(=O)N[C@@H](CCCNC(=N)N)C(=O)N[C@@H](CCC(=O)O)C(=O)N[C@@H](CC(=O)O)C(N)=O)C(C)C)[C@@H](C)O)C(C)C` (Ac-PWAIVWGPTV[NMeS]RED-NH2) here?
A: 1045 ± 1 nM

Q: Which Ki [1] does the source give for `CC[C@H](C)[C@H](NC(=O)[C@H](C)NC(=O)[C@H](Cc1c[nH]c2ccccc12)NC(=O)[C@@H]1CCCN1C(C)=O)C(=O)N[C@H](C(=O)N[C@@H](Cc1c[nH]c2ccccc12)C(=O)NCC(=O)N1CCC[C@H]1C(=O)N(C)[C@H](C(=O)N[C@H](C(=O)N[C@@H](CO)C(=O)N[C@@H](CCCNC(=N)N)C(=O)N[C@@H](CCC(=O)O)C(=O)N[C@@H](CC(=O)O)C(N)=O)C(C)C)[C@@H](C)O)C(C)C` (Ac-PWAIVWGP[NMeT]VSRED-NH2) here?
A: 1260 ± 27 nM

Q: With `CC(=O)N[C@@H](CO)C(=O)N[C@@H](C)C(=O)N[C@@H](CC(=O)O)C(=O)N[C@@H](C)C(=O)N[C@@H](CCC(=O)O)C(=O)N[C@@H](CCC(=O)O)C(=O)N[C@@H](CC(=O)O)C(=O)N[C@@H](CC(=O)O)C(=O)N[C@@H](CO)C(=O)N[C@@H](CC(=O)O)C(=O)N[C@H](C(=O)N[C@@H](Cc1c[nH]c2ccccc12)C(=O)N[C@@H](Cc1c[nH]c2ccccc12)C(=O)NCC(=O)NCC(N)=O)C(C)C` [Peptide 12] (Ac-SADAEEDDSDVWWGG-NH2) as the compound, how does the Ki (AJAP-1probe, read-out: Ki) read?
A: 1300 nM

Q: What about the Ki (Table 3, SPOT hit validation and previously reported peptides, read-out: Ki (nM) mean ± SEM) of the same compound?
A: 1300 ± 28 nM

Q: Which Ki (Table 16, ncAAs incorporated peptides, read-out: Ki (nM) mean ± SEM) does the source give for `CCOc1ccc(C[C@H](NC(=O)[C@H](CO)NC(=O)[C@H](CC(=O)O)NC(=O)[C@H](CC(=O)O)NC(=O)[C@H](CCC(=O)O)NC(C)=O)C(=O)N[C@H](C(=O)N[C@@H](Cc2c[nH]c3ccccc23)C(=O)N[C@@H](Cc2c[nH]c3ccccc23)C(=O)NCC(=O)NCC(=O)N[C@@H](C)C(=O)N[C@@H](CC(=O)O)C(=O)N[C@H](C(=O)N[C@@H](CC(=O)O)C(N)=O)[C@@H](C)O)C(C)C)cc1` (Ac-EDDSY(Et)VWWGGADTD-NH2) here?
A: 46 ± 2 nM

Q: And the Ki (purified peptides, read-out: Ki)?
A: 46.3 nM

Q: And the “fold increased affinity compared to Asp207Trp” value (relative to Asp207Trp mutant of APPWT)?
A: 2 fold

Q: With `CC[C@H](C)[C@H](NC(=O)[C@H](Cc1ccccc1)NC(=O)[C@H](CCC(=O)O)NC(=O)[C@H]([C@@H](C)O)N(C)C(=O)[C@H](CCC(=O)O)NC(C)=O)C(=O)N[C@@H](C)C(=O)N[C@@H](Cc1c[nH]c2ccccc12)C(=O)NCC(=O)N1CCC[C@H]1C(=O)N[C@H](C(=O)NCC(=O)N[C@@H](CC(=O)O)C(=O)N[C@@H](CCC(=O)O)C(=O)N[C@@H](CC(=O)O)C(N)=O)[C@@H](C)O` [E(N-Me-T)EFIAWGPTGDED] (Ac-E[NMeT]EFIAWGPTGDED-NH2) as the compound, how does the Ki [2] read?
A: 37 ± 2 nM

Q: For `CC[C@H](C)[C@H](NC(=O)[C@H](Cc1c[nH]c2ccccc12)NC(=O)[C@H](CC(=O)O)NC(=O)[C@H](CC(=O)O)NC(=O)[C@H](CC(=O)O)NC(=O)[C@H](CCC(=O)O)NC(=O)[C@H](CCCCN)NC(=O)[C@H](C)NC(=O)[C@H](C)NC(=O)[C@H](C)NC(=O)[C@H](CCC(=O)O)NC(=O)[C@H](CCCNC(=N)N)NC(=O)[C@H](CCCNC(=N)N)NC(=O)[C@H](CCCNC(=N)N)NC(=O)[C@H](CCCNC(=N)N)NC(=O)[C@H](CCCNC(=N)N)NC(=O)[C@H](CCCNC(=N)N)NC(=O)[C@H](CCCNC(=N)N)NC(=O)[C@H](CCCNC(=N)N)NC(C)=O)C(=O)N[C@@H](CC(=O)O)C(=O)N[C@@H](Cc1c[nH]c2ccccc12)C(=O)N[C@@H](Cc1ccc(O)cc1)C(=O)N[C@@H](CC(=O)O)C(=O)N[C@@H](CO)C(=O)N[C@@H](CC(=O)O)C(=O)N[C@@H](CC(=O)O)C(=O)N[C@@H](CC(=O)O)C(N)=O` [Peptide R8-RL-16] (Ac-RRRRRRRREAAAKEDDDWIDWYDSDDD-NH2), which Ki [3] is on record?
A: 314 ± 4 nM

Q: And the Ki [4]?
A: 314 ± 4 nM

Q: Which results are given for `CC[C@H](C)[C@H](NC(=O)[C@H](Cc1c[nH]c2ccccc12)NC(=O)[C@H](CC(=O)O)NC(=O)[C@H](CC(=O)O)NC(=O)[C@H](CC(=O)O)NC(=O)[C@H](CCC(=O)O)NC(C)=O)C(=O)N[C@@H](CC(=O)O)C(=O)N[C@@H](Cc1c[nH]c2ccccc12)C(=O)NCC(=O)N1CCC[C@H]1C(=O)N[C@H](C(=O)N[C@@H](CO)C(=O)N[C@@H](CC(=O)O)C(=O)N[C@@H](CC(=O)O)C(=O)N[C@@H](CC(=O)O)C(=O)N[C@@H](CCCNC(=N)N)C(=O)N[C@@H](CCCNC(=N)N)C(=O)N[C@@H](CCCNC(=N)N)C(=O)N[C@@H](CCCNC(=N)N)C(=O)N[C@@H](CCCNC(=N)N)C(=O)N[C@@H](CCCNC(=N)N)C(=O)N[C@@H](CCCNC(=N)N)C(=O)N[C@@H](CCCNC(=N)N)C(N)=O)[C@@H](C)O` [Peptide 17-R8] (Ac-EDDDWIDWGPTSDDDRRRRRRRR-NH2)?
A: Ki [3]: 123 ± 4 nM; Ki [4]: 123 ± 4 nM

Q: Which Ki [5] does the source give for `CC(=O)N[C@@H](CCC(=O)O)C(=O)N[C@@H](CCC(=O)O)C(=O)N[C@@H](CC(=O)O)C(=O)N[C@@H](CC(=O)O)C(=O)N[C@@H](CO)C(=O)N[C@@H](CC(=O)O)C(=O)N[C@H](C(=O)N[C@@H](Cc1c[nH]c2ccccc12)C(=O)N[C@@H](Cc1c[nH]c2ccccc12)C(=O)NCC(=O)NCC(=O)N[C@@H](C)C(=O)N[C@@H](CC(=O)O)C(=O)N[C@H](C(=O)N[C@@H](CC(=O)O)C(=O)N[C@@H](Cc1ccc(O)cc1)C(=O)N[C@@H](C)C(=O)N[C@@H](CC(=O)O)C(=O)NCC(=O)NCC(=O)N[C@@H](CCC(=O)O)C(N)=O)[C@@H](C)O)C(C)C` (Ac-EEDDSDVWWGGADTDYADGGE-NH2) here?
A: 351 ± 26 nM

Q: `CC[C@H](C)[C@H](NC(=O)[C@H](Cc1ccccc1)NC(=O)[C@H](CCC(=O)O)NC(=O)[C@@H](NC(=O)[C@H](CCC(=O)O)NC(C)=O)C(C)C)C(=O)N[C@@H](C)C(=O)N[C@@H](Cc1c[nH]c2ccccc12)C(=O)NCC(=O)N1CCC[C@H]1C(=O)N[C@H](C(=O)NCC(=O)N[C@@H](CC(=O)O)C(=O)N[C@@H](CCC(=O)O)C(=O)N[C@@H](CC(=O)O)C(N)=O)[C@@H](C)O` [EVEFIAWGPTGDED] (Ac-EVEFIAWGPTGDED-NH2) was tested. Which Ki [6] did it give?
A: 28 ± 1 nM

Q: How did the Ki (Table 6, elongation and truncation scan of PIANP binding epitope, read-out: Ki (nM) mean ± SEM) turn out when `CC[C@H](C)[C@H](NC(=O)[C@H](C)NC(=O)[C@H](Cc1c[nH]c2ccccc12)NC(=O)[C@@H]1CCCN1C(C)=O)C(=O)N[C@H](C(=O)N[C@@H](Cc1c[nH]c2ccccc12)C(=O)NCC(=O)N1CCC[C@H]1C(=O)N[C@H](C(=O)N[C@H](C(=O)N[C@@H](CO)C(=O)N[C@@H](CCCNC(=N)N)C(=O)N[C@@H](CCC(=O)O)C(N)=O)C(C)C)[C@@H](C)O)C(C)C` (Ac-PWAIVWGPTVSRE-NH2) was run?
A: 650 ± 9 nM

Q: With `CC(=O)N[C@@H](CCC(=O)O)C(=O)N[C@@H](CCC(=O)O)C(=O)N[C@@H](CC(=O)O)C(=O)N[C@@H](CC(=O)O)C(=O)N[C@@H](CO)C(=O)N[C@@H](CC(=O)O)C(=O)N[C@H](C(=O)N[C@@H](Cc1c[nH]c2ccccc12)C(=O)N[C@@H](Cc1c[nH]c2ccccc12)C(=O)NCC(=O)NCC(=O)N[C@@H](C)C(=O)N[C@@H](CC(=O)O)C(=O)N[C@H](C(=O)N[C@@H](CC(=O)O)C(=O)N[C@@H](Cc1ccc(O)cc1)C(=O)N[C@@H](C)C(=O)N[C@@H](CC(=O)O)C(=O)NCC(=O)NCC(=O)N[C@@H](CCC(=O)O)C(=O)N[C@@H](CC(=O)O)C(N)=O)[C@@H](C)O)C(C)C` (Ac-EEDDSDVWWGGADTDYADGGED-NH2) as the compound, how does the Ki [5] read?
A: 356 ± 11 nM

Q: Which Ki [6] does the source give for `CC[C@H](C)[C@H](NC(=O)[C@H](Cc1ccccc1)NC(=O)[C@H](CCC(=O)O)NC(=O)[C@@H](NC(=O)[C@H](CCC(=O)O)NC(C)=O)[C@@H](C)O)C(=O)N[C@@H](C)C(=O)N[C@@H](Cc1c[nH]c2ccccc12)C(=O)NCC(=O)N1CCC[C@H]1C(=O)N[C@@H](CO)C(=O)NCC(=O)N[C@@H](CC(=O)O)C(=O)N[C@@H](CCC(=O)O)C(=O)N[C@@H](CC(=O)O)C(N)=O` [ETEFIAWGPSGDED] (Ac-ETEFIAWGPSGDED-NH2) here?
A: 32 ± 1 nM

Q: How did the Ki [3] turn out when `CC[C@H](C)[C@H](NC(=O)[C@H](Cc1c[nH]c2ccccc12)NC(=O)[C@H](CC(=O)O)NC(=O)[C@H](CC(=O)O)NC(=O)[C@H](CC(=O)O)NC(=O)[C@H](CCC(=O)O)NC(C)=O)C(=O)N[C@@H](CC(=O)O)C(=O)N[C@@H](Cc1c[nH]c2ccccc12)C(=O)N[C@@H](Cc1ccc(O)cc1)C(=O)N[C@@H](CC(=O)O)C(=O)N[C@@H](CO)C(=O)N[C@@H](CC(=O)O)C(=O)N[C@@H](CC(=O)O)C(=O)N[C@@H](CC(=O)O)C(=O)N[C@@H](CCC(=O)O)C(=O)N[C@@H](C)C(=O)N[C@@H](C)C(=O)N[C@@H](C)C(=O)N[C@@H](CCCCN)C(=O)N[C@@H](CCCNC(=N)N)C(=O)N[C@@H](CCCNC(=N)N)C(=O)N[C@@H](CCCNC(=N)N)C(=O)N[C@@H](CCCNC(=N)N)C(=O)N[C@@H](CCCNC(=N)N)C(=O)N[C@@H](CCCNC(=N)N)C(=O)N[C@@H](CCCNC(=N)N)C(=O)N[C@@H](CCCNC(=N)N)C(N)=O` [Peptide 16-RL-R8] (Ac-EDDDWIDWYDSDDDEAAAKRRRRRRRR-NH2) was run?
A: 100 ± 4 nM

Q: What about the Ki [4] of the same compound?
A: 99.5 ± 4 nM

Q: How did the Ki [2] turn out when `CC[C@H](C)[C@H](NC(=O)[C@H](Cc1ccccc1)NC(=O)[C@H](CCC(=O)O)NC(=O)[C@@H](NC(=O)[C@H](CCC(=O)O)NC(C)=O)[C@@H](C)O)C(=O)N[C@@H](C)C(=O)N[C@@H](Cc1c[nH]c2ccccc12)C(=O)NCC(=O)N1CCC[C@H]1C(=O)N[C@H](C(=O)NCC(=O)N[C@@H](C)C(=O)N[C@@H](CCC(=O)O)C(=O)N[C@@H](CC(=O)O)C(N)=O)[C@@H](C)O` [ETEFIAWGPTGAED] (Ac-ETEFIAWGPTGAED-NH2) was run?
A: 50 ± 1 nM

Q: Which Ki [6] does the source give for `CC[C@H](C)[C@H](NC(=O)[C@H](Cc1ccccc1)NC(=O)[C@H](Cc1c[nH]cn1)NC(=O)[C@@H](NC(=O)[C@H](CCC(=O)O)NC(C)=O)[C@@H](C)O)C(=O)N[C@@H](C)C(=O)N[C@@H](Cc1c[nH]c2ccccc12)C(=O)NCC(=O)N1CCC[C@H]1C(=O)N[C@H](C(=O)NCC(=O)N[C@@H](CC(=O)O)C(=O)N[C@@H](CCC(=O)O)C(=O)N[C@@H](CC(=O)O)C(N)=O)[C@@H](C)O` [ETHFIAWGPTGDED] here?
A: 58 ± 4 nM
